Here are results for ten molecules from PMC8491553 (ACS Medicinal Chemistry Letters, 2021).

The target of the test is SARS-CoV-2 main protease (3CLpro) (Severe acute respiratory syndrome coronavirus 2, UniProt P0DTD1). The test is classed as biochemical.

As for `Cc1cc(CN2CC3(C)CN(Cc4cc(C)no4)CC(C)(C2)C3=O)on1` [Compound 4o], the “activity as main protease inhibitor (in words)” value was “lower micromolar range”.

Take `CC(C)(C)OC(=O)NCCn1cc(CN2CC3(C)CN(Cc4cn(CCNC(=O)OC(C)(C)C)nn4)CC(C)(C2)C3=O)nn1` [Compound 4q]: the “activity as main protease inhibitor (in words)” value is on record as “submicromolar activity”. With `CC12CN(CC(=O)O)CC(C)(CN(CC(=O)O)C1)C2=O` [Compound 4m] the entry was “lower micromolar range”; with `Cn1nc(C(=O)N2CC3(C)CN(C(=O)c4nn(C)c5c4CCc4ccccc4-5)CC(C)(C2)C3=O)c2c1-c1ccccc1CC2` [Compound 2j], “submicromolar range”. As to `CC12CN(Cc3ccccc3)CC(C)(CN(Cc3ccccc3)C1)C2=O` [Compound 4d], the “activity as main protease inhibitor (in words)” value is reported as “submicromolar activity”. Turning to `CC(C)(C)OC(=O)Cn1cc(CN2CC3(C)CN(Cc4cn(CC(=O)OC(C)(C)C)nn4)CC(C)(C2)C3=O)nn1` [Compound 4p], the “activity as main protease inhibitor (in words)” value is “lower micromolar range”. The value for `CC(C)Cc1ccc(C(C)C(=O)O)cc1` (stereo not shown) [Ibuprofen, reference compound] was “no activity at all”; that for `CC12CN(CC#N)CC(C)(CN(CC#N)C1)C2=O` [Compound 4l] was “lower micromolar range”. Take `CC12CN(Cc3cn(Cc4ccccc4)nn3)CC(C)(CN(Cc3cn(Cc4ccccc4)nn3)C1)C2=O` [Compound 4r]: the “activity as main protease inhibitor (in words)” value is given as “lower micromolar range”. With `C#CCN1CC2(C)CN(CC#C)CC(C)(C1)C2=O` [Compound 4c] the entry was “lower micromolar range”.
